One may read the IC50 as the concentration needed to halve the response being measured.

The values below come from publication PMC7167990, “Therapeutic Effects of Atranorin towards the Proliferation of Babesia and Theileria Parasites” (Pathogens, 2020).

The test system of one test is B. microti. The note with it: B. microti in vivo; cited from earlier work.
The test system of another test is T. equi. As to the kind of experiment: In vitro growth inhibition, Babesia fluorescent (SYBR Green I) assay. The following applies: 96 h, 4 days culture, mean of triplicate experiments. The class given is cell-based. On the procedure: (§1) Babesia parasite was incubated and maintained at 37 °C in a humidifying chamber under 5% CO2, 5% O2, and 90% N2 atmosphere using a microaerophilic stationary-phase culture for conducting the in vitro experiment. Briefly, Germany strain Babesia divergens was cultured in cattle RBCs in Roswell Park Memorial Institute 1640 (RPMI 1640; Sigma-Aldrich, St. Louis, MO, USA) medium replenished with 40% cattle serum, while culture medium 199 (M199; Sigma-Aldrich) was utilized for the Argentina strain B. bigemina and Texas strain B. bovis, and T. equi USDA strain cultured in cattle RBCs supplemented with 40% cattle serum and horse RBCs maintained in hypoxanthine (MP Biomedicals, Santa Ana, CA, USA; final concentration 13.6 μg/mL) and 40% horse serum, respectively. GIT medium complemented with 40% horse serum was used as a growth medium for the USDA strain of B. caballi cultured in horse RBCs. To ensure free-bacterial contamination, amphotericin B (0.15 μg/mL) (Sigma-Aldrich), streptomycin (60 U/mL) and penicillin G (60 U/mL) were added to all medium.
(§2) The Babesia fluorescent assay was carried out on the in vitro culture as previously reported elsewhere to assess the growth of the inhibitory effectiveness of ATR and the combination treatment with DA, CF, and AV. Briefly, in three separate trials, using two-fold dilution, different concentrations of ATR, DA, CF, and AV were prepared in the culture medium and added in 96-well plates in triplicate with 1% parasitemia for T. equi, B. divergens and B. caballi at 5% HCT, while for B. bigemina and B. bovis using 2.5% HCT. The drug combined efficacy was conducted at the same time with the single-treatment assay in accordance with the Chou–Talalay method. […] On day four of culture, an aliquot (100 µL) of lysis buffer mixed with 0.2μL/mL SG1 was added per well; subsequently, it was covered with aluminum foil to prevent exposure to light. After incubation for 6-h at 37 °C, fluorescence readings were acquired on a spectrofluorimeter (Fluoroskan Ascent, Thermo Fisher Scientific, Oceanside, CA, USA) with a 485 nm excitation wavelength and a 518 nm emission wavelength.
(§3) The IC50 values of ATR, DA, CF, and AV were established from the in vitro growth inhibition by nonlinear regression curve fit on a GraphPad Prism (GraphPad Software Inc., San Diego, CA, USA). […] The significant variations (p < 0.05) among group mean values on parasitemia and one-way ANOVA Tukey’s test in GraphPad Prism version 5.0 was used to analyze hematology profiles in mice infected with B. microti.

Another test has as its system B. divergens. The test is described as above. The following applies: 96 h, 4 days culture, mean of triplicate experiments. The test is classed as cell-based. As for the experimental part:
as §1, §2, §3

In the next test the test system is B. bigemina. The description is as above. The test is classed as cell-based. The following applies: 96 h, 4 days culture, mean of triplicate experiments. On the procedure:
as §1, §2, §3

For a further test, the system named is B. bovis. The description is as above. The following applies: Bos taurus, 96 h, 4 days culture, mean of triplicate experiments. The class given is cell-based. On the procedure: as §1, §2, §3
For another test, the system named is MDBK cells. As to the kind of experiment: Cytotoxicity assay (CCK-8 cell viability). The class given is cell-based, bovine. On the procedure:
(§4) Cultures of human foreskin fibroblast (HFF; HFF-1 ATCC® SCRC-1041™), Madin–Darby bovine kidney (MDBK; ECACC) and mouse embryonic fibroblast (NIH/3T3; ATCC® CRL-1658™) cells were retrieved from −80 °C stock and cultured continuously at 37 °C under atmosphere 5% CO2 in our laboratory. The NIH/3T3 and HFFs cells were maintained in Dulbecco Modified Eagle’s Medium (DMEM; Gibco, Grand Island, NY, USA), while MDBK cell line grown in Minimum Essential Medium Eagle (MEM; Gibco). Each medium was treated with 0.5% penicillin/streptomycin (Gibco), 10% inactivated fetal bovine serum and 2 mM glutamine. Every 72 to 96 h, the medium was replaced, and once 80% confluence was reached, the cell collection was performed by sub-culture protocol. To confirm the absence of mycoplasma contamination, 4,6-diamidino-2-phenylindole dihydrochloride stain (Sigma-Aldrich) was used.
(§5) The cell viability test was conducted in a 96-well plate as described elsewhere. Briefly, an aliquot of (100 µL) cells was implanted at a concentration of 5 × 10^4 cells/mL in DMEM or MEM with fetal bovine serum and incubated overnight under atmosphere 5% CO2 at 37 °C for attachment. Using two-fold dilutions, aliquots (10 µL) of drugs were added in triplicate per well to attain final concentrations of 50 to 1000 µM and further incubated for 24 h. The positive control wells containing cells mixed with the medium in 0.4% DMSO, whereas the negative control wells containing culture medium only. After a 24-h incubation, Cell Counting Kits-8 (CCK-8, 10 µL) was added to each well and then plate incubation was conducted for an additional 3 h and a microplate reader was used to assess the absorbance at 450 nm.

Another test has as its system HFFs. As to the kind of experiment: Cytotoxicity assay (CCK-8 cell viability). The class given is cell-based, human. As for the experimental part: as §4, §5
The subject of a further test is NIH/3T3 cells. Kind of test: Cytotoxicity assay (CCK-8 cell viability). The test is classed as cell-based, mouse. On the procedure:
as §4, §5

With `CO[C@H]1/C=C\C=C(/C)C(=O)NC2=CC(=O)C(NCCN(C)C)=C(C[C@@H](C)C[C@H](OC)[C@H](O)[C@@H](C)/C=C(\C)[C@@H]1OC(N)=O)C2=O` [17-DMAG], the chemotherapeutic effect in the test on B. microti is on record as 89%.

As for `CC(C)/N=c1\cc2n(-c3ccc(Cl)cc3)c3ccccc3nc-2cc1Nc1ccc(Cl)cc1` [CF, clofazimine], the IC50 is 2.88 ± 0.9 µM in the test on T. equi, 13.8 ± 4.3 µM with B. divergens, 5.73 ± 1.9 µM with B. bigemina and 8.24 ± 1.7 µM in the test with B. bovis. The EC50 in the test with MDBK cells (Bos taurus, MDBK cells, 24 h, CCK-8) was 34.7 ± 3.4 µM; with HFFs (Homo sapiens, HFFs, 24 h, CCK-8) it was above 100 µM; in the test on NIH/3T3 cells (Mus musculus, NIH3T3, NIH/3T3 cells, 24 h, CCK-8, read-out: EC50 NIH/3T3), above 100 µM. Moreover, the “Selective Index MDBK” value is given as 6.1 in the test on MDBK cells (EC50 MDBK / IC50 B. bigemina); 4.2 in the test with MDBK cells (EC50 MDBK / IC50 B. bovis); 4.4 in the test with MDBK cells (EC50 MDBK / IC50 B. caballi); 2.5 in the test with MDBK cells (EC50 MDBK / IC50 B. divergens); 12.1 with MDBK cells (EC50 MDBK / IC50 T. equi). Besides, the “Selective Index HFFs” value with HFFs (EC50 HFFs / IC50 B. bigemina) is reported as “˃17.5”; in the test on HFFs (EC50 HFFs / IC50 B. bovis), “˃12.1”; with HFFs (EC50 HFFs / IC50 B. caballi), “˃12.6”; in the test on HFFs (EC50 HFFs / IC50 B. divergens), “˃7.2”; in the test on HFFs (EC50 HFFs / IC50 T. equi), “˃34.7”. Besides, the “Selective Index NIH/3T3” value was “˃17.5” in the test on NIH/3T3 cells (EC50 NIH/3T3 / IC50 B. bigemina); “˃12.1” in the test on NIH/3T3 cells (EC50 NIH/3T3 / IC50 B. bovis); “˃12.6” with NIH/3T3 cells (EC50 NIH/3T3 / IC50 B. caballi); “˃7.2” in the test with NIH/3T3 cells (EC50 NIH/3T3 / IC50 B. divergens); “˃34.7” with NIH/3T3 cells (EC50 NIH/3T3 / IC50 T. equi).

As for `C=CCS[S+]([O-])CC=C` (stereo not drawn) [allicin], the chemotherapeutic effect in the test with B. microti is 58.3%.

Take `O=c1oc2c(O)c(O)cc3c(=O)oc4c(O)c(O)cc1c4c23` [ellagic acid]: the chemotherapeutic effect in the test on B. microti is 49%.

For the molecule `CCn1cc(C(=O)O)c(=O)c2cc(F)c(N3CCNCC3)nc21` [enoxacin], the chemotherapeutic effect in the test with B. microti is given as 34%.

`COc1cc2c[n+](C)c3c4cc5c(cc4ccc3c2cc1OC)OCO5` [nitidine chloride]: the chemotherapeutic effect with B. microti is on record as 91%.

With `CCn1cc(C(=O)O)c(=O)c2cc(F)c(N3CCNCC3)cc21` [norfloxacin], in the test on B. microti, the chemotherapeutic effect is reported as 31%.

In the case of `CC1COc2c(N3CCN(C)CC3)c(F)cc3c(=O)c(C(=O)O)cn1c23` (stereo not drawn) [ofloxacin], the chemotherapeutic effect with B. microti is reported as 49%.

Regarding `CC1=CC(=O)C(C(C)C)=CC1=O` [thymoquinone], in the test with B. microti, the chemotherapeutic effect was 37%.
